Source: patent US20240024301A1, “METHODS OF TREATING HEAD AND NECK SQUAMOUS CELL CARCINOMA” (Kura Oncology, Inc., priority 2022, published 2024)

Experiments:
[1] = test system: CAL33 xenograft tumors; assay: Immunohistochemistry of CAL33 CDX tumor samples; format: in vivo, mice; details: alpelisib 40 mg/kg QD, tipifarnib 60 mg/kg BID, or the combination, 10 days
Procedure: CAL33 xenograft tumors treated with alpelisib (40 mg/kg QD), tipifarnib (60 mg/kg BID), or the combination, for 10 days were subjected to immunohistochemistry analysis to assess levels of cell proliferation and apoptosis.
Fixation of tumor samples was performed by zinc formalin (Z-Fix, Anatech) and tissues were paraffin-embedded; samples were sectioned into 5 μm sections. Samples were deparaffinized, hydrated with graded ethanols, and the endogenous peroxidase was blocked with 3% H2O2 in 70% ethanol. After washing with distilled water, antigen retrieval was performed with IHC antigen retrieval solution (ThermoFisher Scientific, #00-4955-58) in a microwave at the high setting. Slides were then washed with water and PBS, and incubated with the primary and secondary antibodies, and developed with the ABC reagent (Vector Laboratories, #PK-6100) and the DAB substrate kit (Vector Laboratories, #SK-4105). The following antibodies were used: Cleaved PARP (Cell Signaling Technology #9661, 1:400 dilution) and Ki67 (DACO #M7240, 1:50). Percent positive cells in three fields per slide were counted using a microscope.

[2] = test system: PIK3CA-mutant CAL33 cells; assay: Immunoblots of MAPK/PI3K pathway components and apoptotic markers; format: cell-based; details: alpelisib 0, 1, 2, 6, 24 hours, absence or presence of tipifarnib (48-hour treatment)
Procedure: (§1) Immunoblots of MAPK/PI3K pathway components and apoptotic markers in PIK3CA-mutant CAL33 cells treated with alpelisib (BYL-719) for 0, 1, 2, 6, and 24 hours in the absence or presence of tipifarnib (48-hour treatment) are shown in FIG. 2A. A shift in Rheb and HRas protein mobility is indicative of defarnesylation. Generally, immunoblotting was performed as follows: Cell lysates were prepared on ice by washing cells once with PBS, resuspending in 1× cell lysis buffer (Cell Signaling Technology #9803) or RIPA buffer supplemented with Halt protease inhibitor cocktail (Thermo Scientific #78430) and briefly sonicated or vortexed. Lysates were cleared by centrifugation (maximum speed, 10 min) and protein concentration was determined by BCA assay (Pierce). Lysate (20-60 μg) was loaded onto 4-12% Bis-Tris gels (NuPAGE, Invitrogen) for electrophoresis and immunoblotting. When RAS was evaluated, active RAS was detected using Thermo Scientific kit #16117. Membrane and cytosolic fractions were isolated using the Mem-PER Plus Membrane Protein Extraction Kit (Thermo Scientific kit #89842).
However, by 24 hours, phosphorylation of these proteins partially or completely rebounded. […]

[3] = test system: PIK3CA-mutant CAL33 tumors; assay: Immunoblot and immunohistochemistry of treated CAL33 xenograft tumors; format: in vivo, athymic mice; details: tipifarnib 60 mg/kg BID, 10 days
Procedure: To assess the underlying mechanism of tumor regression, the PIK3CA-mutant CAL33 tumors were treated with tipifarnib (60 mg/kg BID), alpelisib (40 mg/kg QD), or the combination for 10 days. On day 10, tumors were collected from all cohorts at 2 and 24 hours after the final dose of alpelisib for immunohistochemistry and immunoblot analysis. […] Addition of tipifarnib blocked this rebound and promoted cell cycle arrest as indicated by decreased Rb phosphorylation.

[4] = test system: SCC9 cells; assay: Immunoblots of MAPK/PI3K pathway components and apoptotic markers; format: cell-based; details: SCC9 (HRas high); alpelisib 0, 1, 24 hours, absence or presence of tipifarnib (48-hour treatment)
Procedure: as §1
(§2) Immunoblots of MAPK/PI3K pathway components and apoptotic markers in high HRas protein (i.e., overexpression of wild-type HRas protein) HNSCC cell line SCC9 cells and in PIK3CA copy gain (amplified) BICR22 cells are shown in FIG. 2B and FIG. 2D, respectively. […]

[5] = test system: BICR22 cells; assay: as above; format: cell-based; details: BICR22 (PIK3CA copy gain); alpelisib 0, 1, 24 hours, absence or presence of tipifarnib (48-hour treatment)
Procedure: as §1, §2

[6] = test system: HSC2 (H1047R); assay: PI3K-mTOR signaling by immunoblot; format: cell-based; details: 1 h and 24 h
Procedure: PI3K-mTOR Signaling in PIK3CA-mutant HSC2 Cell Line. The PIK3CA-mutant HNSCC cell line HSC2 (H1047R) was treated with the tipifarnib-alpelisib combination and mTOR activity was assessed by immunoblot.

[7] = molecular target: geranylgeranyltransferase type 1 (Homo sapiens, UniProt P53609); details: cited from earlier work
[8] = test system: Rheb protein; assay: Lysosome extraction by density gradient ultracentrifugation and immunoblot; format: cell-based; details: CAL33 cells, versus DMSO
Text: Active Rheb protein is thought to localize to lysosomes to regulate mTOR activity. Density gradient ultracentrifugation was utilized to extract lysosomes from CAL33 cells treated with DMSO or tipifarnib. Lysosomes were lysed and subjected to immunoblot analysis alongside whole-cell lysate (WCL), FIG. 4. LAMP1 is a lysosome-specific marker and is used in this assay.

[9] = test system: HRAS and RHEB; assay: Subcellular fractionation and immunoblot of cytosol and membrane fractions; format: cell-based; details: CAL33, BICR22, and SCC9 cells; 1 μM tipifarnib (48 hr)
Procedure: as §1
CAL33, BICR22, and SCC9 cells were treated with DMSO, 250 nM alpelisib (24 hr), 1 μM tipifarnib (48 hr), or the combination.

[10] = test system: UM-SCC-17B (Q61L); assay: HRAS-mutant cell line spheroid growth, checkerboard, 7 days; format: cell-based
Procedure: (§3) Because a farnesyltransferase inhibitor may block hyperactivated growth factor signaling at multiple nodes, including HRas protein and Rheb protein, the impact of tipifarnib on the growth of PIK3CA-altered HNSCC models and HRAS-mutant HNSCC models in vitro and in vivo was examined. For tumor spheroid growth assays, cells were resuspended in 4% Matrigel and seeded in 96-well ultralow attachment plates at a density of 1-1.5K cells/well. The following day, spheroids were treated with alpelisib and/or tipifarnib and baseline growth measured using 3D Cell Titer Glo reagent (Promega). Spheroids were incubated with drug for 7 days and a final CTG reading taken. Percentage growth was calculated by[(Ti−Tz)/(C−Tz)]×100 for concentrations for which Ti>/=Tz and [(Ti−Tz)/Tz]×100 for concentrations for which Ti<Tz, where Tz=time zero, C=control growth, and Ti=test growth at each drug concentration. […] Consistently, in PIK3CA mutant/amplified PDX models, the tipifarnib-alpelisib doublet led to deeper antitumor responses compared to alpelisib monotherapy.
Inhibition of HRAS-mutant cell line spheroid growth by tipifarnib and/or alpelisib. The HRAS-mutant HNSCC cell line UM-SCC-17B (Q61L) was cultured as 3D tumor spheroids and treated with tipifarnib and/or alpelisib in a checkerboard dose-response fashion for 7 days.

[11] = test system: cell lines harboring PIK3CA mutation or amplification; assay: Growth of PIK3CA-altered HNSCC cell lines, monolayer and spheroid cultures; format: cell-based
Procedure: as §3

SMILES	Cleaved PARP (% positive cells) [1] [% positive cells]	Ki67 (% positive cells) [1] [% positive cells]	Pathway activity, cell cycle and apoptotic markers (immunoblot) [2]	mTOR activity (4EBP1, S6 phosphorylation) ([3]; alpelisib 40 mg/kg QD, tumors collected 2 and 24 hours after final alpelisib dose)	Pathway activity, cell cycle and apoptotic markers (immunoblot) [4]	Pathway activity, cell cycle and apoptotic markers (immunoblot) [5]	mTOR activity (phospho-S6K and S6) and PARP cleavage [6]	Inhibition of geranylgeranyltransferase type 1 [7]	Lysosomal localization of Rheb protein [8]	Membrane localization of HRAS and RHEB [9]	Cytotoxicity in 3D tumor spheroids [10]	Proliferation / cytotoxicity [11]	Farnesylation of HRAS and RHEB (immunoblot) [3]
Cc1nc(NC(=O)N2CCC[C@H]2C(N)=O)sc1-c1ccnc(C(C)(C)C(F)(F)F)c1 [Alpelisib, (2S)—N^1-[4-Methyl-5-[2-(2,2,2-trifluoro-1,1-dimethylethyl)-4-pyridinyl]-2-thiazolyl]-1,2-pyrrolidinedicarboxamide]	5.1 ± 0.4	53.7 ± 9.8	rapidly inhibited the activity of AKT, mTOR, and ERK	transiently inhibited mTOR activity	transiently reduced	transiently reduced	transiently inhibited						
Cn1cncc1[C@@](N)(c1ccc(Cl)cc1)c1ccc2c(c1)c(-c1cccc(Cl)c1)cc(=O)n2C [Tipifarnib, (R)-6-[amino(4-chlorophenyl)(1-methyl-1H-imidazol-5-yl)methyl]-4-(3-chlorophenyl)-1-methyl-2(1H)-quinolinone]	4.9 ± 2.1	35.1 ± 8.1						not an inhibitor of geranylgeranyltransferase type 1	markedly diminished the lysosomal localization of Rheb protein	resulted in the membrane delocalization of the majority of HRAS and RHEB in all three cell types	induced cytotoxicity	reduced proliferation of both monolayer and spheroid cultures	resulted in defarnesylation of HRAS and RHEB
